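Where inhibition never reached the appropriate level, the endpoint shown equals the highest concentration tested. Otherwise, values were interpolated linearly from a five-concentration, 48-hour dose response in 96-well plates. GI50 is the concentration that inhibits growth by half.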 Calls of active or inactive are those of the source. Rule as the data show it: active = GI50 up to about 1.1 µM and inactive = higher.
Columns and labels:
Assay in all cases: inhibition of tumour cell growth, NCI panel, 48 h
[1] = test system: PC-3
[2] = test system: UACC-257
[3] = test system: SK-MEL-28
[4] = test system: NCI-H226
[5] = test system: KM12
[6] = test system: LOX IMVI
[7] = test system: SF-539
[8] = test system: HOP-62
[9] = test system: HCT-116
[10] = test system: ACHN
[11] = test system: T47D
[12] = test system: MDA-MB-435
[13] = test system: CAKI-1
[14] = test system: COLO 205
[15] = test system: NCI/ADR-RES
[16] = test system: HCC 2998
[17] = test system: SK-MEL-2
[18] = test system: MOLT-4
[19] = test system: BT-549
[20] = test system: U-251
[21] = test system: DU-145
[22] = test system: UO-31
[23] = test system: OVCAR-3
[24] = test system: OVCAR-4
[25] = test system: HCT-15
[26] = test system: EKVX
[27] = test system: TK-10
[28] = test system: IGROV-1
[29] = test system: MCF7
[30] = test system: 786-0
[31] = test system: HOP-92
[32] = test system: SK-MEL-5
[33] = test system: NCI-H23
[34] = test system: NCI-H522
[35] = test system: SF-268
[36] = test system: K562
[37] = test system: A498
[38] = test system: SF-295
[39] = test system: OVCAR-5
[40] = test system: HT-29
[41] = test system: MDA-MB-231
[42] = test system: RXF 393
[43] = test system: RPMI-8226
[44] = test system: CCRF-CEM
[45] = test system: SK-OV-3
[46] = test system: SNB-75
[47] = test system: UACC-62
[48] = test system: SW-620
[49] = test system: SNB-19
[50] = test system: OVCAR-8
[51] = test system: Hs-578T
[52] = test system: M14
[53] = test system: A549
[54] = test system: SN12C
[55] = test system: NCI-H460
[56] = test system: Malme-3M
[57] = test system: SR
[58] = test system: HL-60

SMILES: CCCCCCCCCCCCCCCCCCNc1ccn(C2OC(COP(=O)(O)O)C(O)C2O)c(=O)n1 (configuration not stated)
- GI50 [1]: > 100 µM (inactive)
- GI50 [2]: > 100 µM (inactive)
- GI50 [3]: > 100 µM (inactive)
- GI50 [4]: > 100 µM (inactive)
- GI50 [5]: > 100 µM (inactive)
- GI50 [6]: > 100 µM (inactive)
- GI50 [7]: > 100 µM (inactive)
- GI50 [8]: > 100 µM (inactive)
- GI50 [9]: > 100 µM (inactive)
- GI50 [10]: > 100 µM (inactive)
- GI50 [11]: > 100 µM (inactive)
- GI50 [12]: > 100 µM (inactive)
- GI50 [13]: > 100 µM (inactive)
- GI50 [14]: > 100 µM (inactive)
- GI50 [15]: > 100 µM (inactive)
- GI50 [16]: > 100 µM (inactive)
- GI50 [17]: > 100 µM (inactive)
- GI50 [18]: > 100 µM (inactive)
- GI50 [19]: > 100 µM (inactive)
- GI50 [20]: > 100 µM (inactive)
- GI50 [21]: > 100 µM (inactive)
- GI50 [22]: > 100 µM (inactive)
- GI50 [23]: > 100 µM (inactive)
- GI50 [24]: > 100 µM (inactive)
- GI50 [25]: > 100 µM
- GI50 [26]: > 100 µM (inactive)
- GI50 [27]: > 100 µM (inactive)
- GI50 [28]: > 100 µM (inactive)
- GI50 [29]: > 100 µM (inactive)
- GI50 [30]: > 100 µM (inactive)
- GI50 [31]: > 100 µM (inactive)
- GI50 [32]: > 100 µM (inactive)
- GI50 [33]: > 100 µM (inactive)
- GI50 [34]: > 100 µM (inactive)
- GI50 [35]: > 100 µM (inactive)
- GI50 [36]: > 100 µM (inactive)
- GI50 [37]: > 100 µM (inactive)
- GI50 [38]: > 100 µM (inactive)
- GI50 [39]: > 100 µM (inactive)
- GI50 [40]: > 100 µM (inactive)
- GI50 [41]: > 100 µM (inactive)
- GI50 [42]: > 100 µM (inactive)
- GI50 [43]: > 100 µM (inactive)
- GI50 [44]: > 100 µM (inactive)
- GI50 [45]: > 100 µM (inactive)
- GI50 [46]: > 100 µM (inactive)
- GI50 [47]: > 100 µM (inactive)
- GI50 [48]: > 100 µM (inactive)
- GI50 [49]: > 100 µM (inactive)
- GI50 [50]: > 100 µM (inactive)
- GI50 [51]: > 100 µM (inactive)
- GI50 [52]: > 100 µM (inactive)
- GI50 [53]: > 100 µM (inactive)
- GI50 [54]: > 100 µM (inactive)

SMILES: COc1nc(Cl)c(Cl)c(Cl)n1.COc1nc(Cl)nc(Cl)c1Cl
- GI50 [1]: 2.66 µM (inactive)
- GI50 [2]: 3.83 µM (inactive)
- GI50 [3]: 14 µM (inactive)
- GI50 [4]: 42.5 µM (inactive)
- GI50 [5]: 0.485 µM (active)
- GI50 [6]: 2.66 µM (inactive)
- GI50 [7]: 9.35 µM (inactive)
- GI50 [8]: 2.92 µM (inactive)
- GI50 [9]: 8.2 µM (inactive)
- GI50 [10]: 7.59 µM (inactive)
- GI50 [11]: 2.29 µM (inactive)
- GI50 [12]: 2.97 µM (inactive)
- GI50 [55]: 5.6 µM (inactive)
- GI50 [13]: 0.0254 µM (active)
- GI50 [14]: 14.2 µM (inactive)
- GI50 [15]: 7.87 µM (inactive)
- GI50 [16]: 0.252 µM (active)
- GI50 [17]: 7.62 µM (inactive)
- GI50 [18]: 0.603 µM (active)
- GI50 [19]: 9.93 µM (inactive)
- GI50 [20]: 3.78 µM (inactive)
- GI50 [21]: 2.35 µM (inactive)
- GI50 [22]: 0.893 µM (active)
- GI50 [23]: 3.95 µM (inactive)
- GI50 [24]: 6.07 µM (inactive)
- GI50 [25]: 2.19 µM
- GI50 [26]: 0.381 µM (active)
- GI50 [27]: 8.73 µM (inactive)
- GI50 [28]: 4.53 µM (inactive)
- GI50 [56]: 10.6 µM (inactive)
- GI50 [29]: 2.62 µM (inactive)
- GI50 [30]: 14.2 µM (inactive)
- GI50 [31]: 2.31 µM (inactive)
- GI50 [57]: 0.09 µM (active)
- GI50 [32]: 15.2 µM (inactive)
- GI50 [33]: 6.71 µM (inactive)
- GI50 [34]: 0.675 µM (active)
- GI50 [35]: 6.18 µM (inactive)
- GI50 [36]: 0.859 µM (active)
- GI50 [37]: 8.61 µM (inactive)
- GI50 [38]: 7.16 µM (inactive)
- GI50 [39]: 30.9 µM (inactive)
- GI50 [40]: 6.9 µM (inactive)
- GI50 [41]: 17.2 µM (inactive)
- GI50 [42]: 10.7 µM (inactive)
- GI50 [43]: 0.938 µM (active)
- GI50 [58]: 5.47 µM (inactive)
- GI50 [44]: 2.7 µM (inactive)
- GI50 [45]: 10.3 µM (inactive)
- GI50 [46]: 10.3 µM (inactive)
- GI50 [47]: 8.93 µM (inactive)
- GI50 [48]: 3.62 µM (inactive)
- GI50 [49]: 4.97 µM (inactive)
- GI50 [50]: 2.89 µM (inactive)
- GI50 [51]: 3.91 µM (inactive)
- GI50 [52]: 8.36 µM (inactive)
- GI50 [53]: 18.1 µM (inactive)
- GI50 [54]: 23.3 µM (inactive)

Reference: ChEMBL document CHEMBL1201862, “PubChem BioAssay data set” (2004)
